Values quoted from earlier work as cited in patent publication CN114794330A, “一种调节水生动物活力状态的功能性调理剂及其制备方法” (Nori Shanghai Bioengineering Co ltd, priority 2022, dated 2022).

NCCS(=O)(=O)O [牛磺酸, 2-氨基乙磺酸]
solubility in 95% ethanol (95% ethanol, 17℃): 0.004% | solubility in acetone (acetone): 不溶 | solubility in anhydrous ethanol (anhydrous ethanol): 不溶 | solubility in diethyl ether (diethyl ether): 不溶 | solubility in water (water, 12℃): 0.5%
